Consider one compound from ChEMBL document CHEMBL5727794, “P2X7 modulators” (2020).

The target in test [1] is T1, P2X purinoceptor 7 (Homo sapiens, UniProt Q99572).
T1 sequence (Q99572 whole entry): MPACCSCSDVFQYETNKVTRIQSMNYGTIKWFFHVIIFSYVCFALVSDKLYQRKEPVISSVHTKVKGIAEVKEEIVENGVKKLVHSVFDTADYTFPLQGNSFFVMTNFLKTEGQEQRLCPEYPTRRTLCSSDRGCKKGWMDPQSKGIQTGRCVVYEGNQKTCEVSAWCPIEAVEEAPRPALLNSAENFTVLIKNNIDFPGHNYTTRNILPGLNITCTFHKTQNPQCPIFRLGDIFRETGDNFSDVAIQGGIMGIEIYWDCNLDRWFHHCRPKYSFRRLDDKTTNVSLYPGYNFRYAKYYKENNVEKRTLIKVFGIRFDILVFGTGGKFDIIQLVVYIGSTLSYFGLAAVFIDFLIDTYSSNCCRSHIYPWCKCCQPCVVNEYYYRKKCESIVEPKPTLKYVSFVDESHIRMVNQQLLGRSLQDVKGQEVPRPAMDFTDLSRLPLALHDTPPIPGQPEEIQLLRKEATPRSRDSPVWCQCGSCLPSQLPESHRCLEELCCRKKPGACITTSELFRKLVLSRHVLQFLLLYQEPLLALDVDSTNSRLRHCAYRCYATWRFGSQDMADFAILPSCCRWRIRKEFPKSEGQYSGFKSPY
The test is described as follows: (§1) On the day of the experiment, cell membrane preparations were made according to standard published methods. The total assay volume was 100 μl:10 μl compound (10×)+(b) 40 μl tracer (2.5×)+50 μl membrane (2×). The tracer used for the assay was tritiated A-804598. The compound can be prepared as described in the literature. […] The assay was terminated by filtration (GF/B filters pre-soaked with 0.3% PEI) and washed with washing buffer (Tris-HCl 50 mM). The IC50 generated in the binding assay was corrected for tracer concentration and affinity of the tracer to derive at the affinity (Ki) of the test compounds.

Test [2] addresses T2, P2X purinoceptor 7 (Rattus norvegicus, UniProt Q64663).
T2 sequence (Q64663 whole entry): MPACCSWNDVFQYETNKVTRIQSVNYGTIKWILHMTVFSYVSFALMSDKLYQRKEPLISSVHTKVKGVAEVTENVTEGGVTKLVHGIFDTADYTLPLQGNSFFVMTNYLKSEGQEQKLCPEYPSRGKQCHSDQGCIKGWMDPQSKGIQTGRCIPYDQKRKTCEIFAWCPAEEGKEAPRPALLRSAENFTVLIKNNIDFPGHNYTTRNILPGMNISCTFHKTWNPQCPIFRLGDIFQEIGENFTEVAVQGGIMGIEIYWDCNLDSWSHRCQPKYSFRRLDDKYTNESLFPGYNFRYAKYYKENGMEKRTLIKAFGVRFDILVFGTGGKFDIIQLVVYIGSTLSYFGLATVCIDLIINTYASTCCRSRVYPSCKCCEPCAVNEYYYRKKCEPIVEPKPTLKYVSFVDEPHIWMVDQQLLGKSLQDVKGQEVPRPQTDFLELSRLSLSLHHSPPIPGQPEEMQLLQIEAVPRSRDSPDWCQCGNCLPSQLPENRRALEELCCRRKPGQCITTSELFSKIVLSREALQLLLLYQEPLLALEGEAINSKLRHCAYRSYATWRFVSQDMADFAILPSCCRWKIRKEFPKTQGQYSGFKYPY
The test is described as §1.

The IC50 is the point on the concentration scale where inhibition reaches its midpoint.

Take `Cc1c(C(=O)N2Cc3nnn(C4=NN=CC4)c3CC2C)cccc1C(F)(F)F` (configuration not stated): the IC50 was 0.0165 µM at P2X purinoceptor 7 [1] and 0.0102 µM on P2X purinoceptor 7 [2].
